Results: patent publication US20080096861A1, “Chemical Compounds” (SMITHKLINE BEECHAM CORPORATION, priority 2004, published 2008)

The compounds below were run on HIV-1 IIIB (assay: HOS HIV-1 infectivity assay). Conditions: Human immunodeficiency virus 1, IIIB; as determined by the infectivity assay; strain not stated in Table 2; read-out: Activity Level.
Format: cell-based
Method: Compounds were profiled against two HIV-1 viruses, the M-tropic (CCR5 utilizing) Ba-L strain and the T-tropic (CXCR4 utilizing) IIIB strain. Both viruses were propagated in human peripheral blood lymphocytes. Compounds were tested for there ability to block infection of the HOS cell line (expressing hCXCR4/hCCR5/hCD4/pHIV-LTR-luciferase) by either HIV-1 Ba-L or HIV-1 IIIB. Compound cytotoxicity was also examined in the absence of virus addition.
HOS cells (expressing hCXCR4/hCCR5/hCD4/pHIV-LTR-luciferase) were harvested and diluted in Dulbeccos modified Eagles media supplemented with 2% FCS and non-essential amino acid to a concentration of 60,000 cells/ml. The cells were plated into 96-well plates (100 ul per well) and the plates were placed in a tissue culture incubator (37° C.; 5% CO2/95% air) for a period of 24 h.
Subsequently, 50 ul of the desired drug solution (4 times the final concentration) was added to each well and the plates were returned to the tissue culture incubator (37° C.; 5% CO2/95% air) for 1 h. Following this incubation 50 ul of diluted virus was added to each well (approximately 2 million RLU per well of virus). The plates were returned to the tissue culture incubator (37° C.; 5% CO2/95% air) and were incubated for a further 96 h.
Following this incubation the endpoint for the virally infected cultures was quantified following addition of Steady-Glo Luciferase assay system reagent (Promega, Madison, Wis.). Cell viability or non-infected cultures was measured using a CellTiter-Glo luminescent cell viability assay system (Promega, Madison, Wis.). All luminescent readouts are performed on a Topcount luminescence detector (Packard, Meridien, Conn.).

IC50 [nM] | Structure (SMILES)
< 100 | CN(Cc1nc2ccccc2n1CC1CCNC1)C1CCCc2cccnc21 (centres unmarked) [Example 8c, N-Methyl-N-{[1-(3-pyrrolidinylmethyl)-1H-benzimidazol-2-yl]methyl}-5,6,7,8-tetrahydro-8-quinolinamine]
< 100 | CC(C)N1CCC[C@H](Cn2c(CN(CCO)[C@H]3CCCc4cccnc43)nc3ccccc32)C1 [Example 99, 2-{[(1-{[(3S)-1-(1-Methylethyl)-3-piperidinyl]methyl}-1H-benzimidazol-2-yl)methyl][(8S)-5,6,7,8-tetrahydro-8-quinolinyl]amino}ethanol]
< 100 | CN(Cc1nc2ccccc2n1C[C@H]1CCCN(C(=N)N)C1)[C@H]1CCCc2cccnc21 [Example 89, (3R)-3-{[2-({Methyl[(8S)-5,6,7,8-tetrahydro-8-quinolinyl]amino}methyl)-1H-benzimidazol-1-yl]methyl}-1-piperidinecarboximidamide]
100 to 500 | CN(Cc1nc2ccccc2n1Cc1ccncc1)C1CCCc2cccnc21 (centres unmarked) [Example 27, N-Methyl-N-{[1-(4-pyridinylmethyl)-1H-benzimidazol-2-yl]methyl}-5,6,7,8-tetrahydro-8-quinolinamine]
< 100 | CN1CCC[C@H](Cn2c(CN(C)[C@H]3CCCc4cccnc43)nc3ccccc32)C1 [Example 39i, (8S)—N-Methyl-N-[(1-{[(3S)-1-methyl-3-piperidinyl]methyl}-1H-benzimidazol-2-yl)methyl]-5,6,7,8-tetrahydro-8-quinolinamine]
< 100 | CN(Cc1nc2ccccc2n1C[C@H]1CCCN(Cc2cccn2C)C1)[C@H]1CCCc2cccnc21 [Example 104, (8S)—N-Methyl-N-{[1-({(3S)-1-[(1-methyl-1H-pyrrol-2-yl)methyl]-3-piperidinyl}methyl)-1H-benzimidazol-2-yl]methyl}-5,6,7,8-tetrahydro-8-quinolinamine]
100 to 500 | CN(Cc1nc2ccccc2n1C[C@H]1CCCN(Cc2nccs2)C1)[C@H]1CCCc2cccnc21 [Example 103, (8S)—N-Methyl-N-[(1-{[(3S)-1-(1,3-thiazol-2-ylmethyl)-3-piperidinyl]methyl}-1H-benzimidazol-2-yl)methyl]-5,6,7,8-tetrahydro-8-quinolinamine]
100 to 500 | CN(Cc1nc2ccccc2n1CCc1ccccn1)C1CCCc2cccnc21 (centres unmarked) [Example 37, N-methyl-N-([1-[2-(2-pyridinyl)ethyl]-1H-benzimidazol-2-yl]methyl)-5,6,7,8-tetrahydro-8-quinolinamine]
100 to 500 | CN(Cc1nc2ccccc2n1C/C=C/CN)C1CCCc2cccnc21 (centres unmarked) [Example 58, N-({1-[(2E)-4-Amino-2-buten-1-yl]-1H-benzimidazol-2-yl}methyl)-N-methyl-5,6,7,8-tetrahydro-8-quinolinamine]
< 100 | CN(Cc1nc2ccccc2n1C[C@H]1CCCN(CCCO)C1)[C@H]1CCCc2cccnc21 [Example 47, 3-((3S)-3-{[2-({Methyl[(8S)-5,6,7,8-tetrahydro-8-quinolinyl]amino}methyl)-1H-benzimidazol-1-yl]methyl}1-piperidinyl)-1-propanol]
100 to 500 | CC(C)CCNCC(C)(C)Cn1c(CN(C)C2CCCc3cccnc32)nc2ccccc21 (centres unmarked) [Example 69, N-[(1-{2,2-Dimethyl-3-[(3-methylbutyl)amino]propyl}-1H-benzimidazol-2-yl)methyl]-N-methyl-5,6,7,8-tetrahydro-8-quinolinamine]
< 100 | CC(C)N1CCC[C@H]1CN1CCC[C@H](Cn2c(CN(C)[C@H]3CCCc4cccnc43)nc3ccccc32)C1 [Example 107, (8S)—N-Methyl-N-({1-[((3S)-1-{[(2S)-1-(1-methylethyl)-2-Pyrrolidinyl]methyl}-3-piperidinyl)methyl]-1H-benzimidazol-2-yl}methyl)-5,6,7,8-tetrahydro-8-quinolinamine]
< 100 | CN(Cc1nc2ccccc2n1C[C@H]1CCCN(Cc2cccs2)C1)[C@H]1CCCc2cccnc21 [Example 102, (8S)—N-Methyl-N-[(1-{[(3S)-1-(2-thienylmethyl)-3-Piperidinyl]methyl}-1H-benzimidazol-2-yl)methyl]-5,6,7,8-tetrahydro-8-quinolinamine]
< 100 | CC(C)CCN1CCC[C@H](Cn2c(CN(C)[C@@H]3CCCc4cccnc43)nc3ccccc32)C1 [Example 82, (8R)—N-Methyl-N-[(1-{[(3S)-1-(3-methylbutyl)-3-piperidinyl]methyl}-1H-benzimidazol-2-yl)methyl]-5,6,7,8-tetrahydro-8-quinolinamine]
100 to 500 | CN(C)/C(=N\C#N)N1CCC[C@H](Cn2c(CN(C)[C@H]3CCCc4cccnc43)nc3ccccc32)C1 [Example 92, (3R)—N′-Cyano-N,N-dimethyl-3-{[2-({methyl[(8S)-5,6,7,8-tetrahydro-8-quinolinyl]amino}methyl)-1H-benzimidazol-1-yl]methyl}-1-piperidinecarboximidamide]
500 to 10000 | CN(C)Cc1ccc(-n2c(CN(C)C3CCCc4cccnc43)nc3ccccc32)cc1 (centres unmarked) [Example 73, N-[(1-{4-[(Dimethylamino)methyl]phenyl}-1H-benzimidazol-2-yl)methyl]-N-methyl-5,6,7,8-tetrahydro-8-quinolinamine]
500 to 10000 | CC(C)CCN(Cc1nc2ccccc2n1CC(C)(C)CN(C)C)C1CCCc2cccnc21 (centres unmarked) [Example 66, N-({1-[3-(Dimethylamino)-2,2-dimethylpropyl]-1H-benzimidazol-2-yl}methyl)-N-(3-methylbutyl)-5,6,7,8-tetrahydro-8-quinolinamine]
500 to 10000 | CN(Cc1nc2ccccc2n1Cc1ccccn1)C1CCCc2cccnc21 (centres unmarked) [Example 26, N-Methyl-N-{[1-(2-pyridinylmethyl)-1H-benzimidazol-2-yl]methyl}-5,6,7,8-tetrahydro-8-quinolinamine]
500 to 10000 | CN(C)Cc1ccccc1-n1c(CN(C)C2CCCc3cccnc32)nc2ccccc21 (centres unmarked) [Example 74, N-[(1-{2-[(Dimethylamino)methyl]phenyl}-1H-benzimidazol-2-yl)methyl]-N-methyl-5,6,7,8-tetrahydro-8-quinolinamine]
< 100 | CC(C)CCN1CCC[C@@H](Cn2c(CN(C)[C@H]3CCCc4cccnc43)nc3ccccc32)C1 [Example 80, (8S)—N-Methyl-N-[(1-{[(3R)-1-(3-methylbutyl)-3-piperidinyl]methyl}-1H-benzimidazol-2-yl)methyl]-5,6,7,8-tetrahydro-8-quinolinamine]
< 100 | CN(Cc1nc2ccccc2n1CC1CNC1)C1CCCc2cccnc21 (centres unmarked) [Example 10d, N-{[1-(3-Azetidinylmethyl)-1H-benzimidazol-2-yl]methyl}-N-methyl-5,6,7,8-tetrahydro-8-quinolinamine]
< 100 | CN1CCC[C@@H](Cn2c(CN(C)[C@H]3CCCc4cccnc43)nc3ccccc32)C1 [Example 75f, (8S)—N-Methyl-N-[(1-{[(3R)-1-methyl-3-piperidinyl]methyl}-1H-benzimidazol-2-yl)methyl]-5,6,7,8-tetrahydro-8-quinolinamine]
100 to 500 | CN(Cc1nc2ccccc2n1CCCCNS(C)(=O)=O)C1CCCc2cccnc21 (centres unmarked) [Example 51, N-[4-(2-{[Methyl(5,6,7,8-tetrahydro-8-quinolinyl)amino]methyl}-1H-benzimidazol-1-yl)butyl]methanesulfonamide]
100 to 500 | CN(Cc1nc2ccccc2n1CC(=O)NCc1ccncc1)C1CCCc2cccnc21 (centres unmarked) [Example 28, 2-(2-{[Methyl(5,6,7,8-tetrahydro-8-quinolinyl)amino]methyl}-1H-benzimidazol-1-yl)-N-(4-pyridinylmethyl)acetamide]
500 to 10000 | CC(C)CCN(CCCn1c(CN(C)C2CCCc3cccnc32)nc2ccccc21)CCC(C)C (centres unmarked) [Example 65, N-[(1-[3-[Bis(3-methylbutyl)amino]propyl]-1H-benzimidazol-2-yl)methyl]-N-methyl-5,6,7,8-tetrahydro-8-quinolinamine]
< 100 | CN(C)CC(C)(C)CN1CCC[C@H](Cn2c(CN(C)[C@H]3CCCc4cccnc43)nc3ccccc32)C1 [Example 101, (8S)—N-{[1-({(3S)-1-[3-(Dimethylamino)-2,2-dimethylpropyl]-3-piperidinyl}methyl)-1H-benzimidazol-2-yl]methyl}-N-methyl-5,6,7,8-tetrahydro-8-quinolinamine]
< 100 | CC(C)N1CCC[C@H](Cn2c(CN(C)[C@H]3CCCc4cccnc43)nc3ccccc32)C1 [Example 85, (8S)—N-Methyl-N-[(1-{[(3S)-1-(1-methylethyl)-3-piperidinyl]methyl}-1H-benzimidazol-2-yl)methyl]-5,6,7,8-tetrahydro-8-quinolinamine]
100 to 500 | CN(C)Cc1ccccc1Cn1c(CN(C)C2CCCc3cccnc32)nc2ccccc21 (centres unmarked) [Example 50, N-{[1-({2-[(Dimethylamino)methyl]phenyl}methyl)-1H-benzimidazol-2-yl]methyl}-N-methyl-5,6,7,8-tetrahydro-8-quinolinamine]
< 100 | CN(Cc1nc2ccccc2n1C1CCNCC1)C1CCCc2cccnc21 (centres unmarked) [Example 11h, N-Methyl-N-{[1-(4-piperidinyl)-1H-benzimidazol-2-yl]methyl}-5,6,7,8-tetrahydro-8-quinolinamine]
